Results published in patent EP2265599B1, “CRYSTAL FORM OF PHENYLAMINOPYRIMIDINE DERIVATIVE” (Natco Pharma Limited, priority 2008, dated 2009).

What was measured:
ZR-71 = experiment: Matrigel invasion assay (modified Boyden chamber), ZR-71; assay type: cell-based; conditions: cells treated 48 h
Description: (§1) The in vitro invasiveness of 4910, 5310 and U87 glioma cells and MDAMB231 and ZR71 breast cancer cells in the presence of specified concentrations of compounds were assessed using a modified Boyden chamber assay. Cells were treated with these compounds for 48 h. 1x10^6 cells were suspended in 600µl of serum-free medium supplemented with 0.2% BSA and placed in the upper compartment of the transwell chambers (Coming Costar Fischer Scientific Cat #07-200-158, Pittsburgh PA) coated with Matrigel (0.7 mg/ml). The lower compartment of the chamber was filled with 200 µl of serum medium and the cells were allowed to migrate for 24 h. After incubation, the cells were fixed and stained with Hema-3 and quantified as previously described (Mohanam et al. 1993). The migrated cells were imaged microscopically to determine the reduction in invasiveness induced by the compounds of this invention.
(§2) The in vitro invasiveness of 4910, 5310 and U87 glioma cells and MDAMB231 and ZR71 breast cancer cells in the presence of specified concentrations of compounds were assessed using a modified Boyden chamber assay. Cells were treated with these compounds for 48 h.

Baf3E255K = experiment: In vivo anti-leukemic activity, blast cell count in blood smears, Baf3E255K implanted nude mice; conditions: Imatinib 10mg/kg, AN019 20mg/kg, AN024 20mg/kg, oral gavage or ip from day 15; up to day 42
Source text: (§3) Blood smears were obtained via the tail vein or via the femoral vein every 6th day and blast cells counted and graphically represented.
(§4) Abdominal swelling and decrease in activity was monitored daily, blood smear taken via the tail vein or the femoral vein every 6th day and H&E stained as per standard protocols. 42 days after implantation, mice were sacrificed and spleens harvested.
(§5) Nude mice were intraperitoneally implanted with Baf3 mutant cells (wt, T315I, M351T or E255K). […] Blood was drawn from the femoral vein or tail vein every 6th day and blast cell count determined and graphically represented.

MDA-MB-231 = experiment: Matrigel invasion assay (modified Boyden chamber), MDA-MB-231; assay type: cell-based; conditions: cells treated 48 h
Description: as §1, §2

MDA-MB-231 cells = experiment: In vitro angiogenic assay (conditioned media on human dermal endothelial cells), MDA-MB-231; assay type: cell-based; conditions: control condition and after radiation
Description: (§6) The in vitro angiogenesis of 4910, 5310 and U87 glioma cells and MDAMB231 and ZR71 breast cancer cells in the presence of specified concentrations of compounds were determined as follows, cells (2x10^4/well) were seeded in 8-well chamber slides and were treated with various concentrations of test compounds. After a 24 h incubation period, the conditioned media was removed and added to a 4x 10^4 human dermal endothelial cell (monolayer in 8-well chamber slides) and the human dermal endothelial cells were allowed to grow for 72 h. Cells were then fixed in 3.7% formaldehyde and stained with H&E and photographed.

[1] = system: 4910 human glioma xenograft cells; experiment: Glioma radiation study, intracranially implanted 4910 cells; assay type: in vivo, Nude mice
Description: Nude mice were intracranially implanted with 4910 human glioma xenograft cells (1x10^6 cells). Ten days after implantation mice were treated with AN019, AN024 or temozolomide with or without radiation (5Gy/week). The experiment was terminated at day 40 post implantation.

Baf3M351T = experiment: In vivo anti-leukemic activity, blast cell count in blood smears, Baf3M351T implanted nude mice; conditions: Imatinib 10mg/kg, AN019 20mg/kg, AN024 20mg/kg, oral gavage or ip from day 15; up to day 42
Source text: as §3, §4, §5

4910 = experiment: Matrigel invasion assay (modified Boyden chamber), 4910; assay type: cell-based, human; conditions: cells treated 48 h
Description: as §1, §2

U87 glioma cells = experiment: In vitro angiogenic assay (conditioned media on human dermal endothelial cells), U87; assay type: cell-based; conditions: with and without radiation
Description: as §6

[2] = system: 4910, 5310 and U87 glioma cells and MDAMB231 and ZR71 breast cancer cells; experiment: Western blot analysis for pAKT and pERK (cell line not specified); assay type: cell-based; conditions: with and without radiation
Description: (§7) Western blot analysis of 4910, 5310 and U87 glioma cells and MDAMB231 and ZR71 breast cancer cells in the presence of specified concentrations of compounds were assessed as per standard protocols. Cells were treated with AN019, AN024 or Temozolomide at the specified concentrations. 24h after treatment, cells were collected and cell lysates extracted. Equal quantities of proteins were fractionated by SDS-PAGE. The fractionated proteins were blotted on to nylon membranes and immunoprobed for AKT, ERK and Pi3k. Breast cancer cell protein isolates were additionally immunoprobed for EGFR, ErbB1, ErbB2 and ErbB3.

ZR71 = experiment: Western blot analysis for AKT, ERK and Pi3k, ZR71; assay type: cell-based
Description: as §7

4910 cells = experiment: Western blot analysis for AKT, ERK and Pi3k, 4910; assay type: cell-based, human; conditions: decrease enhanced after radiation
Description: as §7

ZR-71 cells = experiment: In vitro angiogenic assay (conditioned media on human dermal endothelial cells), ZR-71; assay type: cell-based
Description: as §6

[3] = system: Glioma xenograft cells 4910; experiment: In vitro angiogenic assay (conditioned media on human dermal endothelial cells), 4910; assay type: cell-based; conditions: 4910 cells, with and without radiation
Description: as §6

K5621uc cells = experiment: Drug temporal penetrance (Tp) after stopping drug treatment; assay type: in vivo, nude mice; conditions: AN019 20mg/kg, AN024 20mg/kg, Imatinib 10mg/kg, daily ip from day 15, stopped on day 35, imaged till day 45
Description: The temporal penetrance was calculated applying the following equation, Tp=. (((P)/(n))a -((P)/(n))ter)/(((P)/(n))a -((P)/(n))b) [formula]
Where: • P=photon counts at day 'a', day 'ter', or day 'b' where 'a' is the day when drug treatment was stopped and 'ter' is the day when the experiment was terminated and 'b' is the day where P is minimum after day a but before day 'ter'. • n=number of animals alive when P was measured.
The animals were imaged at 6 day intervals post transplantation. […] Drug treatment was stopped on day 35 and animals were imaged till day 45, and calculated as described in methods.

U87 cells = experiment: Western blot analysis for AKT, ERK and Pi3k, U87; assay type: cell-based; conditions: decrease was enhanced after radiation
Description: as §7

[4] = system: K562 luciferase expressing cells; experiment: Leukemic survival study, K562 luciferase expressing cells implanted intraperitoneally; assay type: in vivo, nude mice
Baf3T315I = experiment: In vivo anti-leukemic activity, blast cell count in blood smears, Baf3T315I implanted nude mice; conditions: Imatinib 10mg/kg, AN019 20mg/kg, AN024 20mg/kg, oral gavage or ip from day 15; up to day 42
Source text: as §3, §4, §5

U87 = experiment: Matrigel invasion assay (modified Boyden chamber), U87; assay type: cell-based; conditions: cells treated 48 h
Description: as §1, §2

[5] = system: K562 luc human leukemia cells; experiment: Drug effectiveness (De) from in vivo luciferase studies; design: species or system nude mice
Source text: [formula] Where: • Σalive = total number of mice alive per concentration at the end of experiment times photon count, Eluc = total number of mice alive showing luciferase expression per concentration at end of experiment and c represents control untreated animals times photon count and ∑c-initial represents the initial number of animals in control at start of experiment times photon count.

5310 = experiment: Matrigel invasion assay (modified Boyden chamber), 5310; assay type: cell-based; conditions: cells treated 48 h
Description: as §1, §2

K562 = experiment: ED50 (po) and therapeutic index in leukemic mice (K562)
5310 cells = experiment: In vitro angiogenic assay (conditioned media on human dermal endothelial cells), 5310; assay type: cell-based; conditions: control conditions and after radiation
Description: as §6

Cc1ccc(NC(=O)c2cccc(S(=O)(=O)C(F)(F)F)c2)cc1Nc1nccc(-c2cccnc2)n1 [AN024]
+Radiation % Invasion (ZR-71; ZR-71, with radiation): 45%
-Radiation % Invasion (ZR-71; ZR-71, without radiation): 48%
blast cell count in blood smears (Baf3E255K): significant decrease in blast cell count and was superior to AN019 treatment at day 42
+Radiation % Invasion (MDA-MB-231; MDA-MB-231, with radiation): 47%
-Radiation % Invasion (MDA-MB-231; MDA-MB-231, without radiation): 43%
inhibition of angiogenesis (MDA-MB-231 cells): only a slight inhibition was observed in control and radiation treatments
animals cured / no observable intracranial tumor ([1]; with radiation (5Gy/week), terminated at day 40): 7 of 10 animals
intracranial tumours (size, appearance) ([1]; without radiation): showed presence of intracranial tumours but the tumours were well defined and not showing diffuse edges
animals cured / complete absence of intracranial tumours ([1]; without radiation, treatment from ten days after implantation, terminated at day 40): 3 of 10 animals
blast cell count in blood smears (Baf3M351T): significant decrease in blast cell count and was superior to AN019 treatment at day 42
+Radiation % Invasion (4910; 4910, with radiation): 39%
-Radiation % Invasion (4910; 4910, without radiation): 56%
inhibition of angiogenesis (U87 glioma cells): significant retardation in angiogenesis with an increase in inhibition after radiation
levels of pERK [2]: reduction on pERK levels but to a lesser extent than AN019
PI3k levels (ZR71; ZR71 (cell line by context), with and without radiation): decrease in PI3k levels after radiation
AKT levels (ZR71; ZR71, unirradiated and after radiation): did not show any significant change under unirradiated conditions, whereas after radiation AN024 treated cells showed a decrease in AKT expression
AKT levels (4910 cells): decrease in AKT levels
inhibition of angiogenesis (ZR-71 cells): complete inhibition of angiogenesis
inhibition of angiogenesis [3]: significant inhibition of angiogenesis both with and without radiation
Tp (temporal penetrance) (K5621uc cells): 2.4
ERK levels (U87 cells): slight decrease in ERK levels
curative effect after withdrawal of drug treatment (animals cured at day 58) ([4]; drug treatment stopped at day 42, based on luminescence (Fig. 20)): continued to show curative effect
Blast cell count from blood smears after withdrawal of drug treatment ([4]; drug treatment withdrawn on day 42 (Fig. 21)): showed effectiveness after withdrawal of drug treatment
mortality ([4]; treatment from day 15 till day 42, then withdrawn, AN024 death determined to be other than leukemia): showed mortality on day 38
animals showing no signs of leukemia / complete absence of leukemic symptoms ([4]; treatment from day 15 till day 42, then withdrawn, AN024 on day 55): 8 of the 10 animals
blast cell count in blood smears (Baf3T315I): significant decrease in blast cell count and was superior to AN019 treatment at day 42
+Radiation % Invasion (U87; U87, with radiation): 29%
-Radiation % Invasion (U87; U87, without radiation): 53%
De (drug effectiveness) ([5]; 5mg/kg): 30.00%
De (drug effectiveness) ([5]; 10mg/kg): 85.00%
De (drug effectiveness) ([5]; 20mg/kg): 87.00%
De (drug effectiveness) ([5]; 40mg/kg): 90.00%
+Radiation % Invasion (5310; 5310, with radiation): 32%
-Radiation % Invasion (5310; 5310, without radiation): 27%
Therapeutic index-LD50/ED50 (K562): 144
inhibition of angiogenesis (5310 cells): inhibition of angiogenesis was seen in control conditions, whereas angiogenesis further inhibited after radiation treatment
